For assay [1], the species on record is Rattus norvegicus. Description: Concentration required for 50% inhibitory effect on automatic oxidation in plasma membrane of rat brain homogenates by measuring malondialdehyde and 4-hydroxyalkenals using peroxidized lipid colorimetric assay kit. Format: functional.
Assay [2] is described as follows: Tested for anticonvulsant effects on audiogenic seizures in DBA/2 mice; administered intra peritonealy. It is filed as functional. Conditions: Mus musculus.
Assay [3] can be described thus: Inhibition of low-threshold (T-type) Calcium [Ca2+] currents in primary cultured rat cerebrocortical neurons using whole-cell voltage-clamp recording technique. It is filed as functional.
For assay [4], the target named is Sodium channel alpha subunits; brain (Types I, II, III) (Rattus norvegicus, UniProt P04775+P04774+P08104). Briefly: Inhibition of veratridine-induced depolarization of rat cerebrocortical synaptosomes using a membrane potential sensitive fluorescent dye, rhodamine 6G. Format: functional, subcellular.
The next assay concerns the target D(2) dopamine receptor (Rattus norvegicus, UniProt P61169). Description: Concentration required for 50% inhibitory effect on Dopamine receptor D2 determined in competition experiments with [3H]raclopride.
For assay [5], the species on record is Rattus norvegicus. Description: Concentration required for 50% inhibitory effect on automatic oxidation in plasma membrane of rat brain homogenates by measuring malondialdehyde and 4-hydroxyalkenals using peroxidized lipid colorimetric assay kit. It is filed as functional.

In ChEMBL document CHEMBL1133636, “Discovery of (2S)-1-(4-amino-2,3,5- trimethylphenoxy)-3-[4-[4-(4- fluorobenzyl)phenyl]-1-piperazinyl]-2-propanol dimethanesulfonate (SUN N8075): a dual Na(+) and Ca(2+) channel blocker with antioxidant activity” (J Med Chem, 2000) one finds IC50 and ED50 data, which are given here for 4 molecules.

A word on the IC50: it is the concentration that gives 50% inhibition. As usually defined, the ED50 is the dose that gives a 50% effect, or the effect in half of the subjects. Read a high ED50 as a need for a large dose.

Sequence of D(2) dopamine receptor (P61169 whole entry): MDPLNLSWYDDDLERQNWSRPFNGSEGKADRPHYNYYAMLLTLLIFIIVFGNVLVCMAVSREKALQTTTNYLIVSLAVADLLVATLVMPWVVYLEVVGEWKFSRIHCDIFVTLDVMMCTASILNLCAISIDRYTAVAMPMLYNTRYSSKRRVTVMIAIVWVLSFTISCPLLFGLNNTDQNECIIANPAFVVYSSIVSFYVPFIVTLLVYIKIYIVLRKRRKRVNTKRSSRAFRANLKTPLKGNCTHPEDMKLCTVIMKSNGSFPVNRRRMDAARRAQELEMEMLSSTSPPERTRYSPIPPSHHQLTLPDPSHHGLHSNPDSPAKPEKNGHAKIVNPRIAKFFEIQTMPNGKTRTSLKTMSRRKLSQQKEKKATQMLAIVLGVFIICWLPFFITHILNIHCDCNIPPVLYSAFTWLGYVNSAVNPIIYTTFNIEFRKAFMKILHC

For the molecule `CS(=O)(=O)O.CS(=O)(=O)O.Cc1cc(OC[C@@H](O)CN2CCN(c3ccc(Cc4ccc(F)cc4)cc3)CC2)c(C)c(C)c1N`, the IC50 was 0.31 µM in the assay listed under Rattus norvegicus [1], 2 µM in assay [3], 0.42 µM in assay [4] and above 10 µM on D(2) dopamine receptor. This molecule also returned an ED50 in assay [2] of 6.5 mg/kg.
As for `CC(C)c1ccc(CN2CCN(C(c3ccc(F)cc3)c3ccc(F)cc3)CC2)c(=O)c(NCCO)c1`, the IC50 stood at 20 µM in the assay filed under Rattus norvegicus [1], 0.3 µM in assay [3], 0.36 µM in assay [4] and 1.69 µM on D(2) dopamine receptor. For the same molecule, the ED50 in assay [2] was 14.5 mg/kg.
With `Cc1c(C)c2c(c(C)c1O)CC[C@@](C)(CCC[C@H](C)CCC[C@H](C)CCCC(C)C)O2` [ALPHA-TOCOPHEROL], the concentration for half-maximal inhibition (IC50) in the assay listed under Rattus norvegicus [5] is above 100 µM.
In turn, `Fc1ccc(C(c2ccc(F)cc2)N2CCN(C/C=C/c3ccccc3)CC2)cc1` [FLUNARIZINE] returned an ED50 in assay [2] of 11.4 mg/kg. In addition, in assay [3], the concentration for half-maximal inhibition (IC50) was 2.2 µM.
